Test results reported in US20230220047A1, “PEPTIDES FOR TREATMENT OF SEPSIS AND CANCER” (NORWEGIAN UNIVERSITY OF SCIENCE AND TECHNOLOGY (NTNU), priority 2020, published 2023).
“Also recorded” adds a separate entry of the source.

How the values were obtained:
[1] = test system: JJN-3 multiple myeloma cells; type: cell-based, human; details: JJN-3, 4 μM peptide
From the text: Minor effects on the proliferation of the IH-1 and RPMI 8226 cell lines are seen. […] The number of viable cells was detected based on quantitation of ATP by luminescent signal in correlation to a standard curve prepared for each cell line. Results are based on 3-5 biological replicates for each condition, error bars show standard deviation of mean.
(§1) Multiple myeloma cells JJN-3 (DSMZ (Germany) no. ACC 541), ANBL-6 (Cellosaurus accession number CVCL_5425, obtained from Dr Diane Jelinek, Mayo Clinic, Rochester, Minn.), INA-6 (Cellosaurus accession number CVCL_5209, obtained from Dr M. Gramatzki, University of Erlangen-Nurnberg, Erlangen, Germany), RPMI-8226 (ATCC CCL-155), and IH-1 (Cellosaurus accession number CVCL_WZ44, established from the pleural effusion of a myeloma patient by Myeloma research group, IKOM, NTNU, Trondheim, Norway) were grown in RPMI-1640 (Sigma-Aldrich Norway, Oslo, Norway) supplemented with 100 nM penicillin/streptomycin and 10% FCS, and for ANBL-6, IH-1 and INA-6 cells 2 ng/ml recombinant IL-6 (Gibco, Thermo Fisher Scientific, Waltham, Mass., USA). Murine multiple myeloma Vk*MYC cells were obtained from M.D. Leif Bergsagel (Mayo Clinic, Richester, Minn., USA) and cultured in RPMI-1640 supplemented with 2% human serum (B^+, The blood bank, St Olav's Hospital, Trondheim, Norway), 100 nM penicillin/streptomycin, L-Glutamine (2 mM) and recombinant IL-6 (1 ng/ml). HEK293T (ATCC CRL-3216) were cultured in DMEM with 10% FCS. THP-1 TRAM knockout (KO) and TLR4 KO cell lines, and matching lentivirally transduced control cell lines, were differentiated in the same way as wild type (WT) THP-1. TRAM KO THP-1 cell line is described in Yurchenko et al. (supra).
To evaluate the potential impact of the P7 peptide on proliferation of tumour cells of lymphoid origin, we performed a CellTiter-Glo Luminescent Cell Viability Assay to address proliferation of several multiple myeloma (MM) cell lines. […]

[2] = test system: ANBL-6 multiple myeloma cells; assay: CellTiter-Glo cell viability assay, ANBL-6; type: cell-based
Experimental: Minor effects on the proliferation of the IH-1 and RPMI 8226 cell lines are seen. Cells were seeded at the level shown (left-hand bar of each set) then incubated in medium containing water, 10 μM penetratin or 10 μM P7-A4-Pen for 48 hr (except for INA-6 cells, which were incubated with 12.5 μM penetratin or 12.5 μM P7-A4-Pen). The number of viable cells was detected based on quantitation of ATP by luminescent signal in correlation to a standard curve prepared for each cell line. Results are based on 3-5 biological replicates for each condition, error bars show standard deviation of mean.
Cells were seeded and then incubated in growth medium alone or supplemented with water, DMSO, 15 μM penetratin or 15 μM investigational peptide. The growth medium only and H2O—, DMSO- and penetratin-supplemented cultures constituted controls.
The solid horizontal lines show the amount of cells originally seeded. In (A) ANBL-6 cells were seeded at a level of 10,000 cells/well, then incubated in medium supplemented with water, the control peptide C3A-Pen, P7-Pen, P7-A4-Pen, P7-N4-Pen or P7-K2-Pen for 48 hours. The peptides were included at concentrations of 5, 10, 12.5, 15, 20 or 30 μM. Cells were counted at 48 hours. In (B), ANBL-6 cells were seeded at a level of 5000 cells/well, then incubated in medium supplemented with water, P6-Pen, P-P6-Pen, P7-D4-Pen or P7-A4-Pen for 48 hours. Peptides were included at concentrations of 5, 10 or 20 μM. Cells were counted at 48 hours. […] Results are based on 3 biological replicates, error bars show standard deviation of mean.
as §1
To evaluate the potential impact of the P7 peptide on proliferation of tumour cells of lymphoid origin, we performed a CellTiter-Glo Luminescent Cell Viability Assay to address proliferation of several multiple myeloma (MM) cell lines. For the assay, cells were incubated for 48 h in respective media containing either solvent (water), 10 μM control peptide (Pen) or the SLAMF1-derived peptide P7-A4-Pen for 48 h (FIG. 32) (with the exception of the INA-6 cells which were incubated with 12.5 μM control peptide or P7-A4-Pen). […] This effect could be mediated by P7-A4-Pen-induced inhibition of signalling pathways that are crucial for driving proliferation and/or survival of MM tumour cells.

THP-1 cells = assay: Viability of acute myeloid leukaemia cell line THP-1; type: cell-based, human; details: 5-30 μM, 48 h
Experimental: THP-1 cells were seeded in medium at 10,000 cells/well, as indicated by the dotted line. Cells were incubated for 48 hours in medium supplemented with water, C3A-Pen, P7-Pen, P7-A4-Pen or P7-N4-Pen. The peptides were included at concentrations ranging from 5-30 μM. At 48 hours cells were counted. […] The results with other peptides were less clear-cut. Results are based on 3 biological replicates, error bars show standard deviation of mean.
(§2) The peptides were tested against the SW480 cell line in the presence and absence of LPS.

Jurkat cells = assay: Proliferation of Jurkat T cell leukaemia cells; type: cell-based, human; details: 15 μM or 20 μM, 48 h
Experimental: Jurkat cells were seeded at 5000 cells/well (as indicated by dotted line) and incubated in medium supplemented with water, penetratin, P7-Pen or P7-N4-Pen. Peptides were included at 15 μM (A) or 20 μM (B). Cells were incubated for 48 hours then counted. […] Results are based on 3 biological replicates, error bars show standard deviation of mean.
(§3) SW480 (ATCC CCL-228) and Jurkat (ATCC Clone E6-1; TIB-152) cells were cultured in RPMI 1640 (Sigma-Aldrich, Schnelldorf, Germany) supplemented with 10% heat-inactivated FCS, penicillin/streptomycin (Life Technologies) and 20 mM L-Glutamine. THP-1 cells (ATCC TIB-202) were cultured in RPMI-1640 (high-glucose, ATCC) supplemented with 10% heat inactivated foetal calf serum (FCS), 100 nM penicillin/streptomycin and 5 μM β-mercaptoethanol (Sigma). THP-1 cells were differentiated with 60 ng/ml phorbol 12-myristate 13-acetate (PMA, Sigma) for 72 h, followed by 24 or 48 h in medium without PMA.
as §2

SW480 cells = assay: Proliferation of SW480 colon cancer cells; type: cell-based, human; details: 15 μM, 48 h, with or without LPS 100 ng/ml
Experimental: SW480 cells were seeded and incubated in medium alone or supplemented with water, 15 μM penetratin, 15 μM P7-Pen or 15 μM P7-N4-Pen. Under each condition cells were incubated both without LPS and with 100 ng/ml LPS. Cells were incubated for 48 hours then counted. […] The presence of LPS made no difference to the effect of the peptides on proliferation. Results are based on 3 biological replicates, error bars show standard deviation of mean.
as §3, §2

[3] = test system: primary Vk*MYC multiple myeloma cells; assay: Primary Vk*MYC multiple myeloma cells; type: cell-based, mouse; details: 7.5 or 15 μM, 48 h
Experimental: Isolated primary cells were seeded then incubated for 48 hours in growth medium supplemented with water, penetratin, P7-Pen, P7-A4-Pen or P7-N4-Pen, then counted. Peptides were included at concentrations of 7.5 or 15 μM. […] Results are based on 3 biological replicates, error bars show standard deviation of mean.
as §1
Primary multiple myeloma cells were isolated from Vk*Myc mice and provided by the Multiple Myeloma Research Group, IKOM, NTNU. The peptides P7-Pen, P7-N4-Pen and P7-A4-Pen were applied to the cultured primary cells and effect of the peptides on cell growth analysed as previously.

Ac-ITVNASVTLTGRQIKIWFQNRRMKWKK-NH2 [Peptide P7-N4-Pen]
combination effect with melphalan at low melphalan concentrations [1]: synergistic effect
effect on proliferation of ANBL-6 cells ([2]; 15 μM): anti-proliferative effect
anti-proliferative activity over a concentration series ([2]; 5, 10, 12.5, 15, 20 and 30 μM or 5, 10 and 20 μM, 48 h): clear concentration-dependent effect
effect on THP-1 cell number (THP-1 cells): clear dose-dependent cytotoxic effect; also recorded: anti-proliferative effect
effect on proliferation of Jurkat cells (Jurkat cells): modest but clear anti-proliferative effect
effect on proliferation of SW480 cells (SW480 cells): a degree of anti-proliferative effect
effect on primary multiple myeloma cells [3]: strong cytotoxic effect
